“Also recorded” adds a separate entry of the source. Counter-ions that a name gives are not always drawn.
How the values were obtained:
[1] = system: mice (conditioned place preference model of abuse liability); experiment: Conditioned place preference in mice; format: in vivo, C57BL/6 mice; conditions: s.c., 3 drug conditioning trials, relative to saline vehicle
Protocol: Animals. Male C57BL/6 mice, 5-8 weeks of age, (body weight 25-30 g; Envigo, Indianapolis, Ind., USA) were housed 5 per polycarbonate tub with soft bedding in a temperature- and humidity-controlled vivarium. Mice were maintained under a 12-h light/dark cycle with lights on at 06:00. Food and water were available ad libitum Animals acclimated to the vivarium 1 week prior to experimental manipulations.
Drugs and Drug Administration. Test compounds and saline vehicle were administered subcutaneously (s.c.), with doses calculated based on the HCl salt, while the positive control oxycodone was administered intraperitoneally (i.p.), with the dose calculated based on the HCl salt. Normal saline was used as the vehicle. […]
Conditioned Place Preference. Reward and/or aversion was assessed in conditioned place preference chambers (Model MED-CPP-3013; Med Associates, St. Albans, Vt.). […]
Group size was n=10 per treatment. […] Final drug preference is assessed in a 15-minute post-conditioning trial and is calculated by subtracting the time in the drug-paired compartment at baseline from the time in the drug-paired compartment post-conditioning, with positive values reflecting reward and negative values reflecting aversion.
For all trials, time spent in chambers as well as movement was quantified by infrared photobeam detectors and calculated by Med-PC IV software. […]

[2] = Formation of metabolites 11R/11S in RLM (High Activity conditions); format: in vitro ADME, Sprague Dawley rats; conditions: LC-MS/MS
Protocol: RLM Stability (High Activity). Pooled RLM from male Sprague Dawley rats (XenoTech R1000, lot #1910100) were used. Microsomal incubations were carried out in 96-well plates in 5 aliquots of 40 μL each (one for each time point). Liver microsomal incubation medium consisted of PBS (100 mM, pH 7.4), MgCl2 (3.3 mM), NADPH (3 mM), glucose-6-phosphate (5.3 mM), and glucose-6-phosphate dehydrogenase (0.67 units/mL), with 1.0 mg of liver microsomal protein per mL. Control incubations were performed by replacing the NADPH-cofactor system with PBS. Test compounds (1 μM, final solvent concentration 1.6%) were incubated with microsomes at 37° C., shaking at 100 rpm. Incubations were performed in duplicate. Five time points over 60 minutes were analyzed. […] Supernatants were analyzed for parent compound remaining using a fit-for-purpose liquid chromatography-tandem mass spectrometry (LC-MS/MS) method, with authentic samples of each analyte used for identity confirmation.
This condition was also used for experiments measuring the formation of metabolite 11R from compounds 14R and 88R and formation of metabolite 11S from compounds 14S and 88S. The concentrations of 11R and 11S formed during the incubations were quantified using a fit-for-purpose liquid chromatography-tandem mass spectrometry (LC-MS/MS) method, with authentic samples of each analyte used for calibration and identity confirmation.

[3] = HLM stability (Low Activity); format: in vitro ADME; conditions: both sexes, human, liver microsomes, pH 7.4, Condition 1 (Low Activity), 0.42 mg protein/mL
Protocol: For some of the compounds, stability was tested under two microsomal incubation conditions, one with normal enzymatic activity (low activity) and one with higher enzymatic loading, longer incubation time, and lower compound concentration (high activity) intended to increase metabolic lability.
HLM Stability (Low Activity). Pooled HLM from adult male and female donors (XenoTech H0630) were used. Microsomal incubations were carried out in 96-well plates in 5 aliquots of 40 μL, each (one for each time point). Liver microsomal incubation medium consisted of PBS (100 mM, pH 7.4), MgCl2 (3.3 mM), NADPH (3 mM), glucose-6-phosphate (5.3 mM), and glucose-6-phosphate dehydrogenase (0.67 units/mL), with 0.42 mg of liver microsomal protein per mL. Control incubations were performed by replacing the NADPH-cofactor system with PBS. Test compounds (2 μM, final solvent concentration 1.6%) were incubated with microsomes at 37° C., shaking at 100 rpm. Incubations were performed in duplicate. Five time points over 40 minutes were analyzed. The reactions were stopped by adding 12 volumes of 90% acetonitrile-water to incubation aliquots, followed by protein sedimentation by centrifugation at 5500 rpm for 3 minutes. Supernatants were analyzed for parent compound remaining using a fit-for-purpose liquid chromatography-tandem mass spectrometry (LC-MS/MS) method, with authentic samples of each analyte used for identity confirmation.
Data Analysis. The elimination constant (kel), half-life (t1/2) and intrinsic clearance (Clint) were determined in a plot of […] versus time, using linear regression analysis.

mice (forced swim test) = experiment: Forced swim test in mice, 2-h pre-treatment; format: in vivo, CD-1 mice; conditions: s.c.
Protocol: Animals. Male CD-1 mice, aged ˜8 weeks (body weight ˜25-30 g), were used in the experiments. Animals were singly housed under controlled temperatures and 12-hour light/dark cycles, with ad libitum food and water. These studies were carried out in strict accordance with the recommendations in the European Convention for the Protection of Vertebrate Animals Used for Experimental and Other Scientific Purposes. All efforts were made to minimize suffering.
Drugs and Drug Administration. Imipramine hydrochloride was administered intraperitoneally (i.p.) at a dose of 20 mg/kg. Other compounds were tested as the racemates (indicated by “rac” nomenclature) and were administered subcutaneously (s.c.) with doses calculated based on the freebase. Normal saline was used as the vehicle and all compounds were administered at a volume of 5 mL/kg, 2 h before behavioral testing.
Forced Swim Test (FST). Group size was n=10 per treatment, except for vehicle and rac-ketamine groups, which represented n=20 per treatment. Mice were placed individually in a glass cylinder measuring 19 cm wide by 30 cm tall and filled with 24° C. water to a depth of 18 cm. The activity of each mouse was video recorded during each 6-minute session and total immobility time was scored during the last 4 minutes of the session. The water was changed between each mouse to avoid any influence on behavior.
Statistical Analysis. […]

Compound | conditioned place preference (abuse liability) [1] | half-life at 2 μM [3] [h] | microsomal CLint at 2 μM [3] [µL/min/mg] | other results
CN[C@]1(c2ccccc2)CCCCC1=O [Compound 14S, (S)-2-(methylamino)-2-phenylcyclohexan-1-one] | dose-dependent and significant preference |  |  | 
CN[C@@]1(c2ccccc2)CCCCC1=O [Compound 14R, (R)-2-(methylamino)-2-phenylcyclohexan-1-one] | neither preference nor aversion |  |  | 
[2H]C([2H])([2H])N[C@@]1(c2ccccc2)CCCCC1=O [Compound 88R, (R)-2-((methyl-d3)amino)-2-phenylcyclohexan-1-one] |  |  |  | formation of metabolites 11R and 11S compared to non-deuterated counterparts [2]: attenuated formation; also recorded: decreased formation
CNC1(c2ccccc2)CCCCC1=O (racemic) [Compound 14rac, 2-(methylamino)-2-phenylcyclohexan-1-one hydrochloride] |  | 5.47 | 5 | immobility time in FST (mice (forced swim test); 2 h before test, last 4 minutes, relative to vehicle, hydrochloride): reduced time immobile; also recorded: induced antidepressant-like effects; potency at reducing immobility relative to rac-ketamine (mice (forced swim test); 2 h pre-treatment): at least 30 fold
CNC1(c2ccccc2Cl)CCCCC1=O (racemic) [rac-ketamine, racemic ketamine, reference compound] |  | 1.31 | 21 | 
